# Test results: patent US20200093835A1, “METHODS OF TREATING VESTIBULAR SCHWANNOMA” (Massachusetts Eye and Ear Infirmary, priority 2017, published 2020)
# Key:
# [1] = test system: HEI-193 human schwannoma cells; assay: Metabolic activity (MTT) assay, HEI-193; assay type: cell-based; details: for HEI-193 cell metabolic activity: 72 h; for metabolic activity of HEI-193 cells: preliminary testing, clinically reasonable concentrations
# Experimental: (§1) HEI-193 cells are derived from a patient with sporadic bilateral vestibular schwannomas and a history of meningioma; these cells express a splice variant of the merlin protein (encoded by the NF2 gene), but neither typical isoform^52. HEI-193 cells were cultured in DMEM/F12-containing medium with 10% fetal bovine serum and 1% penicillin and streptomycin mix as described above. Immortalized NF2-null and NF2-expressing arachnoid AC-CRISPR cell lines derived from primary human autopsy specimens were obtained via generous gift from Dr. Vijaya Ramesh at Massachusetts General Hospital^40. NF2-null and NF2-expressing arachnoid cells were cultured in DMEM with 15% fetal bovine serum and 1% penicillin and streptomycin mix. All cell lines were maintained in an incubator at 37 degrees Celsius with 5% carbon dioxide and treated with drugs 24-36 hours after seeding at between 15,000-25,000 cells per well in 24-well plates. Phase contrast photos of healthy and drug-treated cultures were taken at 10× magnification on an IncuCyte S3 instrument (Essen Bio).
# Cultures were incubated with drug-containing medium or 0.1% DMSO vehicle for 72 hours and then processed for downstream applications.
# The metabolic activity of primary VS and HEI-193 cells was assessed using the colorimetric 3-(4,5-dimethylthiazol-2-yl)-2,5-diphenyltetrazolium bromide (MTT) assay (Life Technologies). After 72-hour incubation of cells in a 24-well plate with medium containing drug or vehicle, culture medium was replaced with 362 μL of colorless DMEM and 38 μL of 12 mM MTT in 3-6 random wells. Cells were incubated for an additional 4 hours. The resulting formazan crystals were dissolved in 380 μL of a solution of 100 mg/mL sodium dodecyl sulfate in 0.01 M HCl and incubated for another 4 hours. Optical density (OD) at 570 nm of each well was detected using a spectrophotometer. The average OD value of cells exposed to vehicle (0.1% DMSO) was set to 100% and used to normalize OD values of cells treated with drugs; metabolic activity was then reported as percent change. Statistical testing was performed on raw OD values (see Statistical Methods).
# unresectable meningioma = details: cited from earlier work
# HEI-193 cells [2] = assay: ELISA for progesterone in conditioned cell culture medium; assay type: cell-based, human; details: 35 μM versus 0.1% DMSO vehicle; p=0.08
# Experimental: Cell-conditioned medium was collected from mifepristone-treated and untreated HEI-193 cells after 72-hour incubation with the drug. Enzyme-linked immunosorbent assay (ELISA) was performed on each sample in triplicate to assess the quantity of progesterone in cell-conditioned medium, according to the manufacturer's protocol (Enzo Life Science, # ADI-900-011). Data were analyzed using GraphPad Prism 7 software licensed through Harvard Medical School.
# [3] = test system: AC-CRISPR NF2(−/−) and AC-CRISPR NF2(+/+) human arachnoid cells; assay: Metabolic viability, arachnoid cells versus schwannoma cells; assay type: cell-based
# Experimental: as §1
# (§2) The metabolic activity of primary VS and HEI-193 cells was assessed using the colorimetric 3-(4,5-dimethylthiazol-2-yl)-2,5-diphenyltetrazolium bromide (MTT) assay (Life Technologies). […] Optical density (OD) at 570 nm of each well was detected using a spectrophotometer. […]
# HEI-193 cells [4] = assay: Caspase 3/7 activation by live-cell imaging, HEI-193; assay type: cell-based, human; details: 70 μM and 35 μM, over 100 h, versus vehicle
# primary human VS cells [5] = assay: Proliferation assay (BrdU incorporation), primary VS cells
# primary human VS cells [6] = assay: Metabolic activity (MTT) assay, primary VS cells; assay type: cell-based
# Experimental: Written informed consent was obtained from all subjects prior to inclusion in this study and all procedures were conducted in accordance with the Helsinki Declaration of 1975. Detailed methods for human surgical specimen collection, processing, and culture are previously published^38. VS specimens were harvested from patients undergoing surgical tumor resection, and GAN specimens from healthy patients undergoing benign parotidectomy or neck dissection surgery, during which the GAN is routinely sacrificed. Patients who had received radiation therapy prior to surgery were excluded.
# Briefly, after surgical resection, VS or GAN tissue was immediately placed in saline solution and transported to the laboratory on ice. Specimens were rinsed with Hank's Balanced Salt Solution (HBSS, ThermoFisher Scientific), dissected to remove burned tissue and blood vessels, and separated for RNA preservation (RNALater, ThermoFisher Scientific) or primary cell culture. […]
# as §2
# [7] = test system: primary human Schwann cells; assay: Metabolic activity (MTT) assay, primary Schwann cells; assay type: cell-based; details: p=0.23
# HEI-193 cells [8] = assay: TUNEL assay, HEI-193; assay type: cell-based, human; details: 72 h, versus vehicle
# HEI-193 cells [9] = assay: Phalloidin staining of f-actin, HEI-193; assay type: cell-based, human; details: 35 μM, 72 hours
# HEI-193 cells [10] = assay: Cell confluence and phase contrast imaging (IncuCyte), HEI-193; assay type: cell-based, human
# Experimental: as §1, with “All cell lines were maintained in an incubator at 37 degrees Celsius with 5% carbon dioxide and treated with drugs 24-36 hours after seeding at between 15,000-25,000 cells per well in 24-well plates. Phase contrast photos of healthy and drug-treated cultures were taken at 10× magnification on an IncuCyte S3 instrument (Essen Bio).” left out
# Cytotoxicity and cell confluence were measured using live-cell, time-lapse phase contrast and fluorescence imaging acquired at 10× by an IncuCyte S3 instrument (Essen Bioscience). Cytotoxicity was measured by incorporation of IncuCyte Cytotox Reagent (Essen Bioscience), applied according to manufacturer's instructions; the reagent fluoresces when it binds DNA after compromise of membrane integrity. […] Phase object confluence was measured using time-lapse phase contrast imaging acquired at 10× by the same instrument, analyzing 9 images per well every 2 hours for 72 hours, and is reported as percent confluence per square millimeter.
# HEI-193 cells [11] = assay: Flow cytometry, annexin V/propidium iodide staining; assay type: cell-based, human; details: 35 μM, 72 h, versus vehicle
# Experimental: Apoptotic cell death was assessed using an Annexin V/propidium iodide (PI) staining kit (Miltenyi Biotec). […] Adherent cells were collected by trypsinization, and non-adherent (floating) cells were collected from culture medium. Cells were centrifuged, washed in PBS, and incubated in 1× annexin binding buffer, annexin V-fluorescein isothiocyanate (FITC), and propidium iodide (PI) according to the manufacturer's recommendations. Stained cells were immediately analyzed using a Cytomics FC500 flow cytometer. Data were analyzed using CXP Analysis software (version 2.2, Coulter).
# HEI-193 cells [12] = assay: Proliferation assay (BrdU incorporation), HEI-193; assay type: cell-based, human; details: 35 μM, 72 h; p=0.0007
# Experimental: 5′bromo-2′-deoxyuridine (BrdU) was added to label proliferating cells in culture 2 hours before fixation in 4% formalin (paraformaldehyde). Cell membranes were permeabilized with 10 minutes of incubation in 1% Triton X-100 and nuclear membranes with 20 minutes in 2N hydrochloric acid (HCl). Cells were blocked in 5% normal horse serum (NHS) and 1% Triton X-100 and incubated with a primary antibody against BrdU (# OBT0030G, AbD Serotec) overnight, followed by incubation with fluorescent anti-rat immunoglobulin G (AlexaFluor, Life Technologies).
# primary human VS cells [13] = assay: Cytotoxicity assay (IncuCyte Cytotox Reagent), primary VS cells; assay type: cell-based; details: 35 μM, 72 hours, live cell fluorescence microscopy
# Experimental: Cytotoxicity and cell confluence were measured using live-cell, time-lapse phase contrast and fluorescence imaging acquired at 10× by an IncuCyte S3 instrument (Essen Bioscience). Cytotoxicity was measured by incorporation of IncuCyte Cytotox Reagent (Essen Bioscience), applied according to manufacturer's instructions; the reagent fluoresces when it binds DNA after compromise of membrane integrity. Nine images were acquired per well every 2 hours for 72 hours, and cytotoxicity at each time point is reported as number of fluorescent objects per well, after thresholding to avoid the inclusion of small cellular debris. Phase object confluence was measured using time-lapse phase contrast imaging acquired at 10× by the same instrument, analyzing 9 images per well every 2 hours for 72 hours, and is reported as percent confluence per square millimeter.
# [14] = in vivo; cited from earlier work
# HEI-193 cells [15] = assay: Cell cycle analysis; assay type: cell-based, human; details: 72 h treatment
# Experimental: Harvested HEI-193 cells were washed in PBS and fixed in cold 70% ethanol at −20° C. for 18-72 h. Before staining with propidium iodide (PI), cells were centrifuged and washed again in cold PBS. 2×10^6 or fewer cells were incubated with 500 μl staining solution [0.1% Triton X-100 (Sigma), 2 mg/ml RNase A (Qiagen), and 1 μg/ml PI (Miltenyi Biotec) in PBS] for 15 minutes at 37° C. In order to exclude DNAse activity, RNase A was boiled for 5 minutes and cooled down before its addition to staining solution. Cells were analyzed on a Cytomics FC500 flow cytometer using CXP Analysis software (version 2.2, Coulter).
# primary VS cells = assay: Cell death (TUNEL) assay, primary VS cells; assay type: cell-based, human; details: 25 μM, 72 h
compound,measurement,setting,value
"Nc1ncnc2c1ncn2[C@@H]1O[C@H](COP(=O)(O)O)[C@@H](O)[C@H]1O [ADENOSINE MONOPHOSPHATE, ADENOSINE, adenosine monophosphate]",HEI-193 cell metabolic activity,"[1]; 5, 10, and 15 μM",no significant effect
same,metabolic activity of HEI-193 cells,[1],no effect
C[C@H]1C[C@@H]2[C@H]([C@@H](O)C[C@@]3(C)[C@H]2CC[C@]3(O)C(=O)CO)[C@@]2(C)C=CC(=O)C=C12 [methylprednisolone],HEI-193 cell metabolic activity,[1]; 27 μM,no significant effect
same,metabolic activity of HEI-193 cells,[1],no effect
"CC#C[C@]1(O)CC[C@H]2[C@@H]3CCC4=CC(=O)CCC4=C3[C@@H](c3ccc(N(C)C)cc3)C[C@@]21C [mifepristone, 11β-(4-dimethylaminophenyl)-17β-hydroxy-17α-(1-propynyl)-estra-4,9-dien-3-one]",outcome versus placebo,"unresectable meningioma; double-blind, randomized Phase III trial of 164 patients",no difference between treatment and placebo
same,patients with minor responses resulting in clinical benefit,"unresectable meningioma; long-term clinical trial, unresectable meningioma",eight of 28
same,progesterone in culture medium,HEI-193 cells [2],increase in progesterone in culture medium
same,"metabolic viability, schwannoma cells compared with arachnoid cells",[3],reduces the metabolic viability of schwannoma cells more significantly
same,caspase 3/7 activity,HEI-193 cells [4],slight but not significant elevation
same,BrdU incorporation in primary VS cells,"primary human VS cells [5]; 35 μM, p=0.0002",significant decline
same,metabolic activity of primary VS cells,"primary human VS cells [6]; MTT, ten tumors, vehicle vs 35 μM p=0.002",declines with increasing concentrations
same,metabolic viability of primary human Schwann cells,[7],does not adversely affect
same,number of TUNEL positive cells,HEI-193 cells [8],no statistically significant difference
same,f-actin morphology (phalloidin staining),HEI-193 cells [9],crumpled f-actin morphology
same,phase object confluence,"HEI-193 cells [10]; 35 μM, 72 hours",remains constant
same,cell shape under treatment,"HEI-193 cells [10]; phase contrast, FIG. 2C","long, thin, spindle-like shape"
same,early apoptotic cells (annexin V/propidium iodide),HEI-193 cells [11],slight but not significant increase
same,percentage of BrdU+ HEI-193 cells,HEI-193 cells [12],significantly declines
same,metabolic viability of HEI-193 cells,"[1]; MTT, 72 h in culture, vehicle vs 35 μM p=0.006",decreases with increasing concentration
same,cytotoxicity of VS cells,primary human VS cells [13],significant increase
same,blood-brain barrier crossing,[14],able to cross the blood-brain barrier
same,phase of cell cycle,HEI-193 cells [15],no significant differences
C[C@]12C=CC(=O)C=C1CC[C@@H]1[C@@H]2[C@@H](O)C[C@@]2(C)[C@H]1CC[C@]2(O)C(=O)CO [prednisolone],elevation in cell death among primary VS cells versus vehicle,primary VS cells,15.85%
same,proliferation of primary VS cells,"primary human VS cells [5]; 25 μM, 72 h",no effect
same,metabolic activity of primary VS cells,"primary human VS cells [6]; 25 μM, 72 h",modest effect
same,HEI-193 cell metabolic activity,[1]; 25 μM,no significant effect
O=C(O)[C@@H](S)[C@@H](S)C(=O)O [succimer],HEI-193 cell metabolic activity,"[1]; 25, 50, and 100 μM",no significant effect
same,metabolic activity of HEI-193 cells,[1],no effect
gold sodium thiomalate,HEI-193 cell metabolic activity,"[1]; 25, 50, 100, and 300 μM","significant effect on HEI-193 cell metabolic activity, but only at clinically unreasonable concentrations"
same,metabolic activity of HEI-193 cells,[1],no effect
